Where two headings read alike, the source gives them in different places.
What was measured:
Puccinia triticina = test: Fungicidal activity: Wheat Brown Rust (PUCCRT), wheat seedlings; format: in vivo; conditions: High Volume (100 ppm)
Procedure: Technical grades of materials were dissolved in acetone, which were then mixed with nine volumes of water containing 110 ppm Triton X-100. The fungicide solutions were applied onto wheat seedlings using an automated booth sprayer to run-off. All sprayed plants were allowed to air dry prior to further handling. All fungicides were evaluated using the aforementioned method for their activity vs. all target diseases, unless stated otherwise. Wheat leaf blotch and brown rust activity were also evaluated using track spray applications, in which case the fungicides were formulated as EC formulations, containing 0.1% Trycol 5941 in the spray solutions. Wheat plants (variety Yuma) were grown from seed in a greenhouse in 50% mineral soil/50% soil-less Metro mix until the first leaf was fully emerged, with 7-10 seedlings per pot. These plants were inoculated with an aqueous spore suspension of Zymoseptoria tritici either prior to or after fungicide treatments. After inoculation the plants were kept in 100% relative humidity (one day in a dark dew chamber followed by two to three days in a lighted dew chamber at 20° C.) to permit spores to germinate and infect the leaf. The plants were then transferred to a greenhouse set at 20° C. for disease to develop. When disease symptoms were fully expressed on the 1st leaves of untreated plants, infection levels were assessed on a scale of 0 to 100 percent disease severity. Percent disease control was calculated using the ratio of disease severity on treated plants relative to untreated plants. Example B: Evaluation of Fungicidal Activity: Wheat Brown Rust (Puccinia triticina; Synonym: Puccinia recondita f. sp. tritici; Bayer Code PUCCRT) Wheat plants (variety Yuma) were grown from seed in a greenhouse in 50% mineral soil/50% soil-less Metro mix until the first leaf was fully emerged, with 7-10 seedlings per pot. These plants were inoculated with an aqueous spore suspension of Puccinia triticina either prior to or after fungicide treatments. After inoculation the plants were kept in a dark dew room at 22° C. with 100% relative humidity overnight to permit spores to germinate and infect the leaf. The plants were then transferred to a greenhouse set at 24° C. for disease to develop. Fungicide formulation, application and disease assessment followed the procedures as described in the Example A.

[1] = test system: Mycosphaerella graminicola; Anamorph: Zymoseptoria tritici; test: Fungicidal activity: Leaf Blotch of Wheat (SEPTTR), wheat seedlings; format: in vivo
Procedure: Example A: Evaluation of Fungicidal Activity: Leaf Blotch of Wheat (Mycosphaerella graminicola; Anamorph: Zymoseptoria tritici; Bayer Code […]) Technical grades of materials were dissolved in acetone, which were then mixed with nine volumes of water containing 110 ppm Triton X-100. The fungicide solutions were applied onto wheat seedlings using an automated booth sprayer to run-off. All sprayed plants were allowed to air dry prior to further handling. All fungicides were evaluated using the aforementioned method for their activity vs. all target diseases, unless stated otherwise. Wheat leaf blotch and brown rust activity were also evaluated using track spray applications, in which case the fungicides were formulated as EC formulations, containing 0.1% Trycol 5941 in the spray solutions. Wheat plants (variety Yuma) were grown from seed in a greenhouse in 50% mineral soil/50% soil-less Metro mix until the first leaf was fully emerged, with 7-10 seedlings per pot. These plants were inoculated with an aqueous spore suspension of Zymoseptoria tritici either prior to or after fungicide treatments. After inoculation the plants were kept in 100% relative humidity (one day in a dark dew chamber followed by two to three days in a lighted dew chamber at 20° C.) to permit spores to germinate and infect the leaf. The plants were then transferred to a greenhouse set at 20° C. for disease to develop. When disease symptoms were fully expressed on the 1st leaves of untreated plants, infection levels were assessed on a scale of 0 to 100 percent disease severity. Percent disease control was calculated using the ratio of disease severity on treated plants relative to untreated plants.

[2] = 24 h, 1 Day Protectant, read-out: PUCCRT disease control rating, 1DP
[3] = 72 h, 3 Day Curative, read-out: PUCCRT disease control rating, 3DC
[4] = 24 h, High Volume (100 ppm), 1 Day Protectant, wheat, read-out: SEPTTR disease control rating, 1DP
[5] = 72 h, High Volume (100 ppm), 3 Day Curative, wheat, read-out: SEPTTR disease control rating, 3DC

SMILES	pest or weed control at 100 µg/mL (Puccinia triticina; [2]) [%]	pest or weed control at 100 µg/mL (Puccinia triticina; [3]) [%]	pest or weed control at 100 µg/mL [1, 4] [%]	pest or weed control at 100 µg/mL [1, 5] [%]	pest or weed control at 100 µg/mL ([1]; 24 h, read-out: SEPTTR disease control rating, 1DP) [%]	pest or weed control at 100 µg/mL ([1]; 72 h, read-out: SEPTTR disease control rating, 3DC) [%]
COc1ccnc(C(=O)N[C@H]2CCO[C@H](Cc3ccccc3)[C@@H](OCC(C)C)[C@H](C)OC2=O)c1O [Compound 51]	> 70	> 70	> 70	< 70		
COc1ccnc(C(=O)N[C@H]2CCO[C@H](Cc3ccc(F)cc3)[C@@H](Oc3ccccc3)[C@H](C)OC2=O)c1O [Compound 52]	> 70	> 70	> 70	> 70		
COc1ccnc(C(=O)N[C@H]2CCO[C@H](Cc3ccc(F)cc3)[C@@H](OCC(C)C)[C@H](C)OC2=O)c1O [Compound 53]	> 70	> 70	> 70	> 70		
COc1ccnc(C(=O)N[C@H]2CCO[C@H](Cc3ccc(F)cc3)[C@@H](OC(=O)C(C)C)[C@H](C)OC2=O)c1O [Compound 54]	> 70	> 70	> 70	> 70		
C=CCO[C@H]1[C@H](C)OC(=O)[C@@H](NC(=O)c2nccc(OC)c2O)CCO[C@@H]1Cc1ccc(F)cc1 [Compound 55, N-((2R,3S,4S,7S)-3-(allyloxy)-2-(4-fluorobenzyl)-4-methyl-6-oxo-1,5-dioxonan-7-yl)-3-hydroxy-4-methoxypicolinamide]	> 70	> 70	> 70	> 70		
CCCO[C@H]1[C@H](C)OC(=O)[C@@H](NC(=O)c2nccc(OC)c2O)CCO[C@@H]1Cc1ccc(F)cc1 [Compound 56, N-((2R,3S,4S,7S)-2-(4-fluorobenzyl)-4-methyl-6-oxo-3-propoxy-1,5-dioxonan-7-yl)-3-hydroxy-4-methoxypicolinamide]	> 70	> 70			> 70	> 70
COc1ccnc(C(=O)N[C@H]2CCO[C@H](Cc3ccccc3)[C@@H](Oc3ccccc3)[C@H](C)OC2=O)c1O [Compound 57]	> 70	> 70	> 70	> 70		
COc1ccnc(C(=O)N[C@H]2CCO[C@H](CC3CCCC3)[C@@H](Oc3ccccc3)[C@H](C)OC2=O)c1O [Compound 58]	> 70	> 70	> 70	> 70		
COc1ccc(C[C@H]2OCC[C@H](NC(=O)c3nccc(OC)c3O)C(=O)O[C@@H](C)[C@@H]2OCC2CC2)cc1 [Compound 59]	> 70	> 70	< 70	> 70		
COc1ccc(C[C@H]2OCC[C@H](NC(=O)c3nccc(OC)c3O)C(=O)O[C@@H](C)[C@@H]2Oc2ccccc2)cc1 [Compound 60]	> 70	> 70	> 70	> 70		
C=C(C)CO[C@H]1[C@H](C)OC(=O)[C@@H](NC(=O)c2nccc(OC)c2O)CCO[C@@H]1CC [Compound 61]	> 70	> 70	< 70	> 70		
CC[C@H]1OCC[C@H](NC(=O)c2nccc(OC)c2O)C(=O)O[C@@H](C)[C@@H]1OCC(C)C [Compound 62]	> 70	> 70	< 70	> 70		

From patent publication US20170334934A1, “Macrocyclic picolinamides as fungicides” (DOW AGROSCIENCES LLC, priority 2014, published 2017)
